Molecular target: EZH2 (Homo sapiens, UniProt Q15910)
Experiment: EZH2 assay: rPRC2 with biotinylated oligonucleosome substrates and 3H SAM, FlashPlate scintillation counting, IC50
Assay type: biochemical
Conditions: rPRC2, biotinylated oligonucleosome substrates, 3H SAM; read-out: EZH2 IC50
Experimental: Assays were carried out by mixing rPRC2 together with biotinylated oligonucleosome substrates in the presence of the radio-labeled enzyme co-factor, S-adenosyl-L-methionine (^3H SAM) (Perkin Elmer) and monitoring the enzymatically mediated transfer of tritiated methyl groups from ^3H SAM to histone lysine residues. The amount of resulting tritated methylhistone product was measured by first capturing the biotinylated oligonuclesomes in streptavidin (SAV) coated FlashPlates (Perkin Elmer), followed by a wash step to remove un-reacted ^3H SAM, and then counting on a TopCount NXT 384 well plate scintillation counter (Perkin Elmer). The final assay conditions for EZH2 were as follows: 50 mM Tris Buffer pH 8.5, 1 mM DTT, 69 uM Brij-35 detergent, 5.0 mM MgCl2, 0.1 mg/mL BSA, 0.2 uM ^3H SAM, 0.2 uM biotinylated oligonucleosomes, 3.6 uM H3K27me3 peptide and 2 nM EZH2.
Compound IC50 measurements were obtained as follows: Compounds were first dissolved in 100% DMSO as 10 mM stock solutions. […] A 12.5 uL volume of the HMT enzyme, H3K27me3 peptide and oligonucleosome substrate in assay buffer was added to each well of the assay plate using a Multidrop Combi (ThermoFisher). Compounds were pre-incubated with the enzyme for 20 min, followed by initiation of the methyltransferase reaction by addition of 12.5 uL of 3H SAM in assay buffer (final volume=25 uL). The final concentrations of compounds ranged from a top default concentration of 80 uM down to 0.16 uM in ten 2-fold dilution steps. Reactions were carried out for 60 minutes and quenched with 20 uL per well of 1.96 mM SAH, 50 mM Tris PH 8.5, 200 mM EDTA. Stopped reactions were transferred to SAV coated Flashplates (Perkin Elmer), incubated for 120 min, washed with a plate washer, and then read on the TopCount NXT (1.0 min/well) to measure the amount of methylhistone product formed during the reaction. The amount of methylhistone product was compared with the amount of product formed in the 0% and 100% inhibition control wells allowing the calculation of % Inhibition in the presence of the individual compounds at various concentrations. IC50's were computed using a 4 parameter fit non-linear curve fitting software package (XLFIT, part of the database package, ActivityBase (IDBS)) where the four parameters were IC50, Hill slope, pre-transitional baseline (0% INH), and post-transitional baseline (100% INH); with the latter two parameters being fixed to zero and 100%, respectively, by default.

EZH2, sequence (Q15910 whole entry): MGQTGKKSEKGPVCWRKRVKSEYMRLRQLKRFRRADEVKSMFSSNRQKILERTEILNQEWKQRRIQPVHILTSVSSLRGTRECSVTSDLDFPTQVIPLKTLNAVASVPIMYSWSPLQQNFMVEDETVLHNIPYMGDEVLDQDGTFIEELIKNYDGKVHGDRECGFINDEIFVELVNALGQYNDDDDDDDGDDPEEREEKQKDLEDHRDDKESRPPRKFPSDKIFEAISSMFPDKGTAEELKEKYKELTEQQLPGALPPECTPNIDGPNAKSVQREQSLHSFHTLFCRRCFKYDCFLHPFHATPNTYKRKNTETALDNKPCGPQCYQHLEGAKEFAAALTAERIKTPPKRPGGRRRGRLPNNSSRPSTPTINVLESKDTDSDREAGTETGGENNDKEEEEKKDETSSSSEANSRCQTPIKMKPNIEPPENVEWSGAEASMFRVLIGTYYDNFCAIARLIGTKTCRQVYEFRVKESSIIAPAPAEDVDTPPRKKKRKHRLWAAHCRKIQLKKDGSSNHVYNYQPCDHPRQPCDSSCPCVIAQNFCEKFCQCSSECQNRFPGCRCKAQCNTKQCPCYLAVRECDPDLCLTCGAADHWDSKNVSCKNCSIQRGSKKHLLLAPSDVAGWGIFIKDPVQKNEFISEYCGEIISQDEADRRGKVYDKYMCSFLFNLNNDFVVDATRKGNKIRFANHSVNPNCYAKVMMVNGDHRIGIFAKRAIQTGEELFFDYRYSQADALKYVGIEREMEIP
EZH2, sequence (O75530 whole entry partner): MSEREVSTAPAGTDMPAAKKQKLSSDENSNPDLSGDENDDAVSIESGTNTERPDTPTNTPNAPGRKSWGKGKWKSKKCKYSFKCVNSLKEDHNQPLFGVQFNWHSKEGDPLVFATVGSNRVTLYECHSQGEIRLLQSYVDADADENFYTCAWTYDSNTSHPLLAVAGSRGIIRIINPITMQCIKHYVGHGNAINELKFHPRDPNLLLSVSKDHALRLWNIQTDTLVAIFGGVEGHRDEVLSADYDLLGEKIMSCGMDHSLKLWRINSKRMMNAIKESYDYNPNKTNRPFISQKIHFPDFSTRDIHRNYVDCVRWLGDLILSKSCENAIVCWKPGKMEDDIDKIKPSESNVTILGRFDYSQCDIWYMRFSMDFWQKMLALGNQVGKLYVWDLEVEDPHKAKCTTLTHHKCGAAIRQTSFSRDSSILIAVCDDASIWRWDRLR
EZH2, sequence (Q15022 whole entry partner): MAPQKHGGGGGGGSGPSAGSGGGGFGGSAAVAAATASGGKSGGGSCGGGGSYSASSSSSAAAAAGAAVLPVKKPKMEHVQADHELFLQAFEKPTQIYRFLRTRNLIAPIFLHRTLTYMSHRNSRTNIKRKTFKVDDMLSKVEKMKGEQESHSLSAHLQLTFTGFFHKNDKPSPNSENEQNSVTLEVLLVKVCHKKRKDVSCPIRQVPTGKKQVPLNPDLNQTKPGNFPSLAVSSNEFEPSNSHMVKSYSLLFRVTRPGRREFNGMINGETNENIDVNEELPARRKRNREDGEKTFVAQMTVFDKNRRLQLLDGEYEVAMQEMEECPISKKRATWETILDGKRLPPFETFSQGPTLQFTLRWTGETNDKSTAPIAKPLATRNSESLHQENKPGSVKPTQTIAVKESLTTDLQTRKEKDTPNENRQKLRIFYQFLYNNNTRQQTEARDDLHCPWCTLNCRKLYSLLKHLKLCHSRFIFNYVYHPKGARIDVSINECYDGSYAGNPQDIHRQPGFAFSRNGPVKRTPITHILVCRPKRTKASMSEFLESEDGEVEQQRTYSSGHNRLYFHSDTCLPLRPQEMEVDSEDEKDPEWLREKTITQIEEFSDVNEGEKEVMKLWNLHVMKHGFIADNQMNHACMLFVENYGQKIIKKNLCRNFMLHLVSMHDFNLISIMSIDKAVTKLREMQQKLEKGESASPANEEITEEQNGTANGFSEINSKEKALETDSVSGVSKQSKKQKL

IC50 [µM]	SMILES
> 80	O=C(N[C@H]1CCN(Cc2ccccc2)C1)c1ccc(Oc2ccccc2)cc1 (stereo in doubt) [Compound I-101]
< 5	CC1(C)CC(NC(=O)c2ccc(COc3cccc(-c4ccc(N)nc4)c3)cc2)CC(C)(C)N1 [Compound I-1]
< 5	CC1(C)CC(NC(=O)c2ccc(Oc3ccccc3C#N)c(Cl)c2)CC(C)(C)N1 [Compound I-2]
< 5	CC1(C)CC(NC(=O)c2ccc(COc3cccc(-c4cnc(N)nc4)c3)cc2)CC(C)(C)N1 [Compound I-3]
< 5	CC1(C)CC(NC(=O)c2ccc(Oc3ccccc3C#N)cc2)CC(C)(C)N1 [Compound I-6]
5 to 20	Cc1cc(C)cc(OCc2ccc(C(=O)NC3CC(C)(C)NC(C)(C)C3)cc2)c1 [Compound I-9]
5 to 20	CC1(C)CC(NC(=O)c2ccc(Oc3cccnc3C#N)cc2)CC(C)(C)N1 [Compound I-10]
5 to 20	CC1(C)CC(NC(=O)c2ccc(COc3cccc(-c4cn[nH]c4)c3)cc2)CC(C)(C)N1 [Compound I-12]
5 to 20	Cc1cncc(-c2cccc(OCc3ccc(C(=O)NC4CC(C)(C)NC(C)(C)C4)cc3)c2)c1 [Compound I-13, 4-((3-(5-methylpyridin-3-yl)phenoxy)methyl)-N-(2,2,6,6-tetramethylpiperidin-4-yl)benzamide]
5 to 20	Cc1ccc(-c2cccc(OCc3ccc(C(=O)NC4CC(C)(C)NC(C)(C)C4)cc3)c2)cn1 [Compound I-14]
5 to 20	Cc1ccc(OCc2ccc(C(=O)NC3CC(C)(C)NC(C)(C)C3)cc2)cc1C [Compound I-15]
5 to 20	CC1(C)CC(NC(=O)c2ccc(Oc3cccc(C#N)c3)cc2)CC(C)(C)N1 [Compound I-17]
5 to 20	CC1(C)CC(NC(=O)c2ccc(COc3cccc(-c4ccc(F)nc4)c3)cc2)CC(C)(C)N1 [Compound I-19]
5 to 20	Cc1ncccc1Oc1ccc(C(=O)NC2CC(C)(C)NC(C)(C)C2)cc1 [Compound I-20]
20 to 80	CC1(C)CC(NC(=O)c2ccc(Oc3cccnc3)cc2)CC(C)(C)N1 [Compound I-21]
20 to 80	CC1(C)CC(NC(=O)c2ccc(Oc3ccc(O)cc3)cc2)CC(C)(C)N1 [Compound I-25]
20 to 80	COc1cc(C(=O)NC2CC(C)(C)NC(C)(C)C2)ccc1COc1cccc(Br)c1 [Compound I-31]
20 to 80	CC1(C)CC(NC(=O)c2ccc(COc3cccc(-c4cncnc4)c3)cc2)CC(C)(C)N1 [Compound I-32]
20 to 80	CCOC(=O)c1cccc(Oc2ccc(C(=O)NC3CC(C)(C)NC(C)(C)C3)cc2)c1 [Compound I-34]
20 to 80	CC1(C)CC(NC(=O)c2ccc(COc3cccnc3)cc2)CC(C)(C)N1 [Compound I-36]
20 to 80	CC1(C)CC(NC(=O)c2ccc(COc3ccccc3)cc2)CC(C)(C)N1 [Compound I-39]
20 to 80	CC1(C)CC(NC(=O)c2ccc(Oc3ccccc3F)cc2)CC(C)(C)N1 [Compound I-40]
20 to 80	Cc1ccc(OCc2ccc(C(=O)NC3CC(C)(C)NC(C)(C)C3)cc2)c(C)c1 [Compound I-42]
20 to 80	CC1(C)CC(NC(=O)c2ccc(Oc3ccccc3N3CCOCC3)cc2)CC(C)(C)N1 [Compound I-44]
20 to 80	CC1(C)CC(NC(=O)c2ccc(Oc3ccccc3)cc2)CC(C)(C)N1 [Compound I-52]
20 to 80	CC1(C)CC(NC(=O)c2ccc(Oc3ccccn3)cc2)CC(C)(C)N1 [Compound I-56]
20 to 80	COc1ccccc1Oc1ccc(C(=O)NC2CC(C)(C)NC(C)(C)C2)cc1 [Compound I-57]
20 to 80	CC1(C)CC(NC(=O)c2ccc(COCc3ccccc3)cc2)CC(C)(C)N1 [Compound I-62]

The remaining lines, values behind:

SMILES	IC50 [µM]
CC1(C)CC(NC(=O)c2ccc(COc3cccc4ccccc34)cc2)CC(C)(C)N1 [Compound I-4]	< 5
CC1(C)CC(NC(=O)c2ccc(COc3cccc(-c4cnc5[nH]ccc5c4)c3)cc2)CC(C)(C)N1 [Compound I-5]	< 5
CC1(C)CC(NC(=O)c2ccc(COc3cccc(-c4cccnc4)c3)cc2)CC(C)(C)N1 [Compound I-7]	5 to 20
CC1(C)CC(NC(=O)c2ccc(COc3cccc(Br)c3)cc2)CC(C)(C)N1 [Compound I-8]	5 to 20
CC1(C)CC(NC(=O)c2ccc(COc3cccc(-c4cc[nH]c(=O)c4)c3)cc2)CC(C)(C)N1 [Compound I-11]	5 to 20
CC1(C)CC(NC(=O)c2ccc(Oc3ccccc3Br)cc2)CC(C)(C)N1 [Compound I-16]	5 to 20
Cc1ccc(-c2cccc(OCc3ccc(C(=O)NC4CC(C)(C)NC(C)(C)C4)cc3)c2)s1 [Compound I-18]	5 to 20
Cc1ccc(OCc2ccc(C(=O)NC3CC(C)(C)NC(C)(C)C3)cc2)cc1 [Compound I-22]	20 to 80
Cc1cccc(C)c1OCc1ccc(C(=O)NC2CC(C)(C)NC(C)(C)C2)cc1 [Compound I-23]	20 to 80
Cc1cc(C(=O)NC2CC(C)(C)NC(C)(C)C2)ccc1Oc1ccccc1 [Compound I-24]	20 to 80
CC(=O)Nc1cccc(Oc2ccc(C(=O)NC3CC(C)(C)NC(C)(C)C3)cc2)c1 [Compound I-26, 4-(3-Acetamidophenoxy)-N-(2,2,6,6-tetramethylpiperidin-4-yl)benzamide]	20 to 80
Cc1cc(-c2cccc(OCc3ccc(C(=O)NC4CC(C)(C)NC(C)(C)C4)cc3)c2)cnc1F [Compound I-27]	20 to 80
CC1(C)CC(NC(=O)c2ccc(Oc3ccccc3Cl)cc2)CC(C)(C)N1 [Compound I-28]	20 to 80
CC1(C)CC(NC(=O)c2ccc(Oc3cccc(O)c3)cc2)CC(C)(C)N1 [Compound I-29]	20 to 80
CC1(C)CC(NC(=O)c2ccc(COc3cccc(-c4cccc(O)c4)c3)cc2)CC(C)(C)N1 [Compound I-30]	20 to 80
CC1(C)CC(NC(=O)c2ccc(COc3cccc(-c4cncc(C#N)c4)c3)cc2)CC(C)(C)N1 [Compound I-33]	20 to 80
CCc1ccccc1Oc1ccc(C(=O)NC2CC(C)(C)NC(C)(C)C2)cc1 [Compound I-35]	20 to 80
COc1cncc(-c2cccc(OCc3ccc(C(=O)NC4CC(C)(C)NC(C)(C)C4)cc3)c2)c1 [Compound I-37]	20 to 80

SMILES	IC50 [µM]
CC1(C)CC(NC(=O)c2ccc(COc3cccc(-c4ccc(O)cc4)c3)cc2)CC(C)(C)N1 [Compound I-38]	20 to 80
COc1ccc(-c2cccc(OCc3ccc(C(=O)NC4CC(C)(C)NC(C)(C)C4)cc3)c2)cn1 [Compound I-41]	20 to 80
Cc1ccc(CO)cc1Oc1ccc(C(=O)NC2CC(C)(C)NC(C)(C)C2)cc1 [Compound I-43]	20 to 80
CC1(C)CC(NC(=O)c2ccc(SCc3ccccc3)cc2)CC(C)(C)N1 [Compound I-45, 4-(Benzylthio)-N-(2,2,6,6-tetramethylpiperidin-4-yl)benzamide]	20 to 80
Cc1cccc(OCc2ccc(C(=O)NC3CC(C)(C)NC(C)(C)C3)cc2)c1 [Compound I-46, N-(2,2,6,6-tetramethylpiperidin-4-yl)-4-(m-tolyloxymethyl)benzamide]	20 to 80
CC1(C)CC(NC(=O)c2ccc(COc3cccc(-c4cccnc4N)c3)cc2)CC(C)(C)N1 [Compound I-47]	20 to 80
Cc1ccccc1Oc1ccc(C(=O)NC2CC(C)(C)NC(C)(C)C2)cc1 [Compound I-48]	20 to 80
CC1(C)CC(NC(=O)c2ccc(Oc3ccccc3)c(Cl)c2)CC(C)(C)N1 [Compound I-49, 3-chloro-N-(2,2,6,6-tetramethylpiperidin-4-yl)-4-phenoxybenzamide]	20 to 80
CC1(C)CC(NC(=O)c2ccc(Sc3ccccc3)cc2)CC(C)(C)N1 [Compound I-50]	20 to 80
CC1(C)CC(NC(=O)c2ccc(COc3cccc(-c4cccc(C#N)c4)c3)cc2)CC(C)(C)N1 [Compound I-51]	20 to 80
COC(=O)c1cccc(COc2ccc(C(=O)NC3CC(C)(C)NC(C)(C)C3)cc2)c1 [Compound I-53]	20 to 80
Cc1cccc(OCc2ccc(C(=O)NC3CC(C)(C)NC(C)(C)C3)cc2)c1C [Compound I-54]	20 to 80
COc1ncccc1-c1cccc(OCc2ccc(C(=O)NC3CC(C)(C)NC(C)(C)C3)cc2)c1 [Compound I-55]	20 to 80
Cc1ncccc1-c1cccc(OCc2ccc(C(=O)NC3CC(C)(C)NC(C)(C)C3)cc2)c1 [Compound I-58]	20 to 80
CC1(C)CC(NC(=O)c2ccc(COc3cccc(F)c3)cc2)CC(C)(C)N1 [Compound I-59]	20 to 80
Cc1cccc(Oc2ccc(C(=O)NC3CC(C)(C)NC(C)(C)C3)cc2)c1 [Compound I-60]	20 to 80
CC1(C)CC(NC(=O)c2ccc(-c3ccccc3)cc2)CC(C)(C)N1 [Compound I-61]	20 to 80

Reference: patent publication US20130310379A1, “MODULATORS OF METHYL MODIFYING ENZYMES, COMPOSITIONS AND USES THEREOF” (CONSTELLATION PHARMACEUTICALS, priority 2010, published 2013)
